From US20260130888A1, “NOVEL THERAPEUTIC MOLECULE” (Pillai Universal LLC, priority 2022, published 2026)
“Also recorded” adds a separate entry of the source.

Columns and labels:
db/db diabetic mice [1] = assay: Effect on body weight, total cholesterol, plasma glucose and triglyceride levels of db/db diabetic mice; format: in vivo
Description: Effect of Compound I on Body Weight Total Cholesterol, Plasma Glucose, and Triglyceride Levels of db/db Diabetic Mice
It is well-known that there is an increase of serum lipid concentration in people with diabetes.
db/db mouse is a genetic obesity diabetic animal model produced with the aid of the shortage of leptin receptor. The pathogenesis features of T2DM in db/db mice was similar to those in human type 2 diabetes, including hyperglycemia, obesity, and insulin resistance. Current years, db/db mice have been broadly used in animal experiments to set up the T2DM model. We have investigated whether Compound I include IR activators with insulin-mimetic and insulin-sensitizing activity by means of evaluating their effects on IR signaling. Compound I (100 mg/kg and 200 mg/kg b.wt) treatment for 7 days reduced food consumption and body weight in the db/db mice, an inherited obese animal model (FIG. 5, a-d). […] Based on these findings, further studies on Compound I have been carried out in the subsequent experiments to explore their inhibitory activity against PTP1B.

[2] = system: IRS-1, IRS-2, PI3K, Glut4 and Akt; assay: Expression of diabetic-associated gene transcripts in streptozotocin-induced diabetic mice, semiquantitative RT-PCR; format: in vivo
Method: One of the mechanisms which can stimulate or enhance glucose uptake in cells is the elevated translocation of glucose transporter 4 (GLUT 4) from the intracellular site to the plasma membrane. […] The expression of diabetic-related, gluconeogenic and glycolytic genes, in streptozotocin-induced diabetic mice, were treated with Compound I was determined using semiquantitative RT-PCR. As the internal control, GAPDH the band density of each target gene normalized to the band density of GAPDH of the sample.

[3] = system: HFD+STZ type II diabetic mice; assay: Effect on body weight, plasma glucose, total cholesterol and triglyceride levels of HFD+STZ type II diabetic mice; format: in vivo, C57BL/6J mice
Description: Effect of Compound I on body weight, Total cholesterol, Plasma glucose, and triglyceride levels of HFD+STZ type II diabetic mice:
Eight weeks of dietary manipulation with high-fat diet increased the body weight in all the groups when compared to NPD group.
Type 2 diabetes mellitus and its related complications have arisen as serious health problems in modern societies. The cutting edge technology of drug development is to identify small molecule drugs helpful in controlling both diabetes and obesity. In this study, we assess the impact of a small molecule Compound I having insulin mimicking effect by inhibiting PTP-1B and activating IR-β phosphorylation in insulin-sensitive tissues by in vivo animal model. […] The induction of diabetes mellitus in mice confirmed by elevated levels of fasting plasma glucose. Plasma glucose level measured in normal and experimental mice.

db/db diabetic mice [4] = assay: Effect on body weight, total cholesterol, plasma glucose and triglyceride levels of db/db diabetic mice; format: in vivo; conditions: 100 and 200 mg/kg b.wt, 2 weeks, vs control mice
p-IRβ = biological target: T1, p-IRβ (Mus musculus, UniProt P15208); assay: Insulin mimicking effect in skeletal muscle and liver of db/db mice, Western blot and PCR: p-IRβ; format: in vivo; conditions: vs non-treated control group
T1 construct: from tissue; host or cells: skeletal muscle and liver of db/db mice
Method: (§1) Insulin Mimicking Effect of COMPOUND I in Skeletal Muscle and Liver of db/db Mice
(§2) To further utilize the insulin mimetic effect of Compound I, the key proteins in PTP1B and PI3K/Akt signaling pathway were evaluated using Western blot and PCR after treatment with Compound I. Western blotting and PCR analysis have been carried out to verify the expression of PTP1B and IR β in skeletal muscle and liver to establish the inhibition effect of Compound I towards PTP1B.

PTP1B [5] = assay: Insulin mimicking effect in liver and skeletal muscle of HFD+STZ mice, PCR analysis: PTP1B; format: in vivo; conditions: dose-dependent, p<0.05
Description: (§3) Insulin Mimicking Effect of Compound I in Liver and Skeletal Muscle of HFD+STZ Type II Diabetic Mice
(§4) In the insulin signaling pathway, protein tyrosine phosphatase 1B (PTP1B) considered playing a vital role in the intracellular signal transduction process and metabolism. There is compelling confirmation that PTP1B, is principally responsible for the dephosphorylation of insulin receptor (IR-β), as a result, leading to the block of insulin signaling transduction pathway. […] (FIG. 7, a & b)

[6] = system: IRS-1, IRS-2, PI3K, Glut4, Akt; assay: Liver insulin resistance in C57BL/6J-db/db mice: expression of insulin signaling genes; format: in vivo; conditions: vs C57BL/6J-db/db control group, p<0.05
Description: Effect of Compound I on Liver Insulin Resistance in the C57BL/6J-db/Dbmice
The expression of insulin signaling genes such as IRS-1, IRS-2, PI3K, Glut4, Akt in the livers of the db/db mice reduced noticeably when compared with that of the normal mice. There was a significant enhance within the activation of all the examined genes in the C57BL/6J-db/db treatment group compared to that of normal control group FIG. 8.

p-IRβ, IR = assay: Phosphorylated insulin-signaling molecules in muscles and liver of diabetic mice (discussion); format: in vivo; conditions: oral administration, dose-dependent
Description: (§5) Next, we examine the effect of COMPOUND Ion PTP-1B inhibition and activation of IR-β phosphorylation by PCR and Western blotting studies. In the current study, we used the type 2 diabetic C57BL/6J STZ, HFD+STZ C57BL/6J, db/db mouse model to assess the antihyperglycemic property. […] As shown in FIGS. 6&8, There is a diminish in the tyrosine phosphorylation levels of the IR β- in the skeletal muscle and liver of diabetic mice, involving the PTP1B function in all the diabetic-treated mice. According to Tagami et al. expression of PTP1B activity up regulated in the skeletal muscle and adipose tissue of Otsuka Long-Evans Tokush-in fat rats. Haj et al. established that the hepatic-specific over expression of PTP1B confirmed insulin resistance no longer merely in the liver but also in other tissues in PTP1B knockout mice. For that reason, PTP1B plays a main function in diabetic mice. When PTP1B gets activated, the insulin signaling transduction pathway blocked, and the level of plasma glucose is disturbed, ensuing in the increased plasma glucose level. […] The increased in the tyrosine phosphorylation expression level of the IR β-subunit in the skeletal muscle and liver of Compound I treated diabetic mice point out the enhancement of insulin sensitivity in the entire animal model tested.

inflammatory parameters = assay: Inflammatory mediators in HFD+STZ type II diabetic mice; format: in vivo
Description: FIG. 7 depicts the Insulin mimicking effect of compound I in Liver and skeletal muscle of HFD+STZ type II diabetic mice • a. Insulin Mimetic Effect • b. Inflammatory mediators
as §4

insulin receptor (IR-β) = assay: Insulin mimicking effect in liver and skeletal muscle of HFD+STZ mice, PCR analysis: IR-β; format: in vivo; conditions: dose-dependent
Description: as §3, §4

PTP1B [7] = assay: Insulin mimicking effect in skeletal muscle and liver of db/db mice, Western blot and PCR: PTP1B; format: in vivo; conditions: vs control group, p<0.01
Method: as §1, §2

PI3K, GLUT4 = assay: PI3K and GLUT4 gene expression in diabetic mice (discussion); format: in vivo
Description: as §5, with “tested. […]” for “tested.”

[8] = metformin-treated group vs model group
[9] = Metformin 250 mg/kg b.wt, vs diabetic group
[10] = 100 and 200 mg/kg b.wt, treatment for 7 days
[11] = 7 days after treatment, vs control mice
[12] = Compound I, dose-dependent, high dose better (P<0.05)
[13] = 14 days after treatment, dose-dependent, vs control mice
[14] = C57BL/6J mice fed high-fat diets, 7 days after injection, vs control mice
[15] = low and high doses (100 and 200 mg/kg), vs diabetic group

T1 sequence (P15208 753-1372 limits assumed): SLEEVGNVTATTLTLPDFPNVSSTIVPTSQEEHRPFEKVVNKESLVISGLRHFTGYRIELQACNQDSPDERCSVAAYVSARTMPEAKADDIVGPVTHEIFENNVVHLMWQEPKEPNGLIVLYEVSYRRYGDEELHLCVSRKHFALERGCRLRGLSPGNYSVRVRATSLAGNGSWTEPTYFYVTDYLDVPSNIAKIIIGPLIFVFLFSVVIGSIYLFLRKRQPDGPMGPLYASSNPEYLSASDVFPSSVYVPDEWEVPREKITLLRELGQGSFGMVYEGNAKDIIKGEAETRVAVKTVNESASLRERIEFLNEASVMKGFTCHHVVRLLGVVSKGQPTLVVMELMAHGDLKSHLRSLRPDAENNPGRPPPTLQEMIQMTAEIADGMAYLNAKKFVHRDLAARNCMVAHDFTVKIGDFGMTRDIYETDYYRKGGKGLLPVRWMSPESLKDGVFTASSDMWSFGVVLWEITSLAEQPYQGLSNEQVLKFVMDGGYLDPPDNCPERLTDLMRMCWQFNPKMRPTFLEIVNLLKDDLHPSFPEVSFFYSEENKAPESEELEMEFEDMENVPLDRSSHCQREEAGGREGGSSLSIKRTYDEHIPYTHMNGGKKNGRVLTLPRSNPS
T1 sequence (P15208 28-748 partner limits assumed): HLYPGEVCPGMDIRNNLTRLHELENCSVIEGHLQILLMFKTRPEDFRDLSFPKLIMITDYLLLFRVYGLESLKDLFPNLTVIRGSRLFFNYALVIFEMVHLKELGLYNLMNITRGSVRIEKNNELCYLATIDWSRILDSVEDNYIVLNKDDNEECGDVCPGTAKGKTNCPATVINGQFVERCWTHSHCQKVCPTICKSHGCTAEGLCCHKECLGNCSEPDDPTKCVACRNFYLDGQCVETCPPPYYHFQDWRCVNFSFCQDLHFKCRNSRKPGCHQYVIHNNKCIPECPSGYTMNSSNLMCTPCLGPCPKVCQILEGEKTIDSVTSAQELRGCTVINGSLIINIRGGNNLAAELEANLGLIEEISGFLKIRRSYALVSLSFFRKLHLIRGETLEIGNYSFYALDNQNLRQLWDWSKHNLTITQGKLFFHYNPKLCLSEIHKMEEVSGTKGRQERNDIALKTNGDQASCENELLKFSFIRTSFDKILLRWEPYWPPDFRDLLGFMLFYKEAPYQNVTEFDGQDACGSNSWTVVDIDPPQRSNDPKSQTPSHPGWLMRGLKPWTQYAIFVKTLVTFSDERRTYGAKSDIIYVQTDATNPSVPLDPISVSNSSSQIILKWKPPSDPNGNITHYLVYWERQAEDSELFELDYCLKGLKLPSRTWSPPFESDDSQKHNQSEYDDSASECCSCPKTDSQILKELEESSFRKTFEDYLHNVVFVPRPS

## CN(C)C(=N)N=C(N)N [Metformin, reference compound]
db/db diabetic mice [1]; [8]
  serum total cholesterol levels: lower than in the model group
  serum triglyceride levels: lower than in the model group
[2]; Metformin-treated groups, skeletal muscle and liver tissue, p<0.05
  levels of insulin-signaling gene expression: increased levels
[3]; [9]
  glucose: markedly reduced
  total cholesterol: markedly reduced
  triglycerides: markedly reduced

## COc1cc(CO)cc2c1[nH]c1c(/C(C)=C/C(=O)O)cccc12 [Compound I, (2E)-3-[6-(hydroxymethyl)-8-methoxy-9H carbazol-1-yl]but-2-enoic acid]
db/db diabetic mice [4]
  body weights: significantly decreased
db/db diabetic mice [4]; p>0.05
  food intake: extensively lower
p-IRβ
  p-IRβ: significantly increased
PTP1B [5]
  expression of PTP1B: significantly decreased
[6]
  expression of all genes involved in insulin signaling pathway: notably enhanced
db/db diabetic mice [1]; 100 and 200 mg/kg b.wt, 7 days, vs normal control
  free fatty acids levels: reduced
db/db diabetic mice [1]; [10]
  body weight: reduced
  food consumption: reduced
db/db diabetic mice [1]; [11]
  Fasting plasma glucose: markedly lower; also recorded: reduced
  insulin: markedly lower; also recorded: reduced
  triglyceride levels: markedly lower; also recorded: reduced
db/db diabetic mice [1]; [12]
  total cholesterol concentration: lowered
  triglycerides concentration: lowered
[2]; Compound I 100 mg/kg, Liver tissue
  expression of all the gene transcripts, fold increased expression: ~2.5 fold
[2]; Compound I 100 mg/kg, skeletal muscle
  expression of all the gene transcripts, fold change: ~3.5 fold change
p-IRβ, IR
  expression level of proteins (p-IRβ, IR): significantly augmented
[3]; 100 and 200 mg/kg b.wt, C57BL/6J mice fed high-fat diets for 7 days, vs control mice
  food intake: extensively decreased
[3]; [13]
  Fasting plasma glucose: markedly diminished
  insulin levels: markedly diminished; also recorded: markedly reduced
  triglyceride levels: markedly diminished; also recorded: markedly reduced
[3]; [14]
  Fasting plasma glucose levels: markedly diminished
  insulin levels: markedly diminished
  triglyceride levels: markedly diminished
[3]; C57BL/6J mice fed high-fat diets, 7 days, vs normal control mice
  body weights: widely dropped
[3]; Compound I 100 mg/kg and 200 mg/kg b.wt, 14 days, C57BL/6J mice fed high-fat diets, vs control mice, p<0.001
  food intake: drastically lower
[3]; Compound I 100 and 200 mg/kg b.wt, 14 days, vs control mice
  body weights: significantly reduce
[3]; [15]
  decrease in Plasma glucose levels: approximately two fold
  decrease in triglycerides levels: approximately two fold
  total cholesterol levels reduced: 2.5 fold
[3]; oral 100 mg/kg and 200 mg/kg b.wt, STZ-treated diabetic mice
  plasma glucose level: highly significant effect by reducing
Inflammatory parameters
  expression of inflammatory parameters: significantly reduced
Insulin receptor (IR-β)
  IR-β levels: concomitant increase
PTP1B [7]
  PTP1B expression: downregulated substantially
PI3K, GLUT4; in contrast to diabetic mice
  PI3K and GLUT4 expression levels: enhanced significantly
PI3K, GLUT4; vs normal control group
  GLUT4 mRNA expression: extremely expressed
